Data: patent US20250230146A1, “CARBOCYCLIC NUCLEOSIDE, OLIGONUCLEOTIDE AND PREPARATION METHODS THEREFOR AND MEDICAL USES THEREOF” (REDFIELD PHARMACEUTICAL INC., priority 2023, published 2025)

Tests used:
[1] = test system: snake venom phosphodiesterase (Crotalus admanteus venom phosphodiesterase (CAVP))
[2] = test system: sense strand (5′-AAAAAAAAAA-3′; SEQ ID NO: 4); assay: Melting temperature (Tm) test of antisense strand annealed with sense strand; conditions: duplex with sense strand 5′-AAAAAAAAAA-3′; UV absorption at 260 nm
Method: A mixture of 1 mL of the sense strand (0.5 OD/mL) and 1 mL of the antisense strand (0.5 OD/mL) was mixed and stirred evenly, heated at 90° C. for 10 min, and then cooled to room temperature. A Tm value of the sample was measured using an ultraviolet spectrophotometer (Agilent, Cary 3500 UV-Vis), the sample was placed in a cuvette with a cap and a temperature probe, a temperature was set to be raised from 20-25° C. to 70-80° C. at a rate of 0.5° C. or 1.0° C. per minute, and ultraviolet absorption at 260 nm was measured at an interval of 0.5° C.

5′-TTTTTTTTTT-3′ [Control antisense strand]
degradation by nuclease (in words) [1]: almost completely degraded
Tm [2]: 43 °C
